US20130190268A1, “BIOTINYLATED POLYSACCHARIDES HAVING AN ANTITHROMBOTIC ACTIVITY AND IMPROVED METABOLIC STABILITY” (SANOFI, priority 2010, published 2013)
Where a name gives a salt, the structure may show the parent alone.

Columns and labels:
biotinidase = biological target: T1, biotinidase (Homo sapiens, UniProt P43251); test: Metabolic stability in human plasma medium at pH 6.0 with respect to biotinidase activity; assay type: in vitro ADME; conditions: pooled human plasma, pH 6.0, 1 μM, 37° C., LC/MS-MS
T1 construct: Ten individual batches of human plasma originating from 5 men and 5 women; from tissue; host or cells: pooled human plasma (5 men, 5 women), sodium citrate
T1 sequence (P43251 22-523): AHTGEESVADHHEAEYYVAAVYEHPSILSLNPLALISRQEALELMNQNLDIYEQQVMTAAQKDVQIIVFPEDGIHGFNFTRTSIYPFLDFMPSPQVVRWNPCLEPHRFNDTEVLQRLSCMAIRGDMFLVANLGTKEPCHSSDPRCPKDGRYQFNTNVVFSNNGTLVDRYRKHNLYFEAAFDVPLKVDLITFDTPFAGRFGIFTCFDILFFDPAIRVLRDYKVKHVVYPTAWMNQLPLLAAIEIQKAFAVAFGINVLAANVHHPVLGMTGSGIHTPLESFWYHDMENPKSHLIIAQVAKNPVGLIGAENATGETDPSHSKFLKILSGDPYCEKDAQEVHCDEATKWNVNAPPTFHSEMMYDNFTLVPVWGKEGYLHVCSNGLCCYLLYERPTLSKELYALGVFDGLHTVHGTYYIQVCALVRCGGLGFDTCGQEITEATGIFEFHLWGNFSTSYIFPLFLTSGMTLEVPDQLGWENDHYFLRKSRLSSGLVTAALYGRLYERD
Experimental: The metabolic stability of the compounds according to the invention with respect to biotinidase activity was studied on human plasma having been sampled on sodium citrate as anticoagulant. Ten individual batches of human plasma originating from 5 men and 5 women, constituting the evaluation matrix, were used and pooled in order to evaluate the metabolic stability of the compounds. The human plasma was incubated under the following conditions: • incubation medium (freshly prepared): 740 μl of 54 mM of sodium phosphate buffer, pH 6.0, containing 1.08 mM of disodium EDTA and 4.3 mM of cysteamine hydrochloride, • human plasma: 40 μl • concentrations of the compounds to be studied: 1 μM • incubation time: 24 hours • incubation temperature: 37° C.
The reaction is initiated by adding the compound to be studied, after a 10-minute period of preincubation of the plasma and of the incubation medium. At the end of the incubation period (24 hours), the reaction is stopped.
The compounds according to the invention are quantified according to a specific LC/MS-MS method.
The metabolization of each compound studied is measured by monitoring the disappearance of the unchanged product, the concentrations being determined for each incubation sample at time 0 hours and at time 24 hours, and the percentage metabolization being calculated according to the following formula: […]
The terms [compound at T 24H] and [compound at T 0H] correspond to the concentration of the compound to be studied in the reactive medium after 24 hours and before the beginning of the reaction, respectively.

[1] = biological target: coagulation factor Xa, in the presence of antithrombin (Homo sapiens, UniProt P01008); test: Antithrombin-dependent anti-factor Xa activity (in vitro inhibition of coagulation factor Xa); assay type: biochemical; conditions: read-out: IC50 (dose enabling 50% inhibition), anti-Xa activity (converted)
coagulation factor Xa, in the presence of antithrombin, sequence (P01008 33-464): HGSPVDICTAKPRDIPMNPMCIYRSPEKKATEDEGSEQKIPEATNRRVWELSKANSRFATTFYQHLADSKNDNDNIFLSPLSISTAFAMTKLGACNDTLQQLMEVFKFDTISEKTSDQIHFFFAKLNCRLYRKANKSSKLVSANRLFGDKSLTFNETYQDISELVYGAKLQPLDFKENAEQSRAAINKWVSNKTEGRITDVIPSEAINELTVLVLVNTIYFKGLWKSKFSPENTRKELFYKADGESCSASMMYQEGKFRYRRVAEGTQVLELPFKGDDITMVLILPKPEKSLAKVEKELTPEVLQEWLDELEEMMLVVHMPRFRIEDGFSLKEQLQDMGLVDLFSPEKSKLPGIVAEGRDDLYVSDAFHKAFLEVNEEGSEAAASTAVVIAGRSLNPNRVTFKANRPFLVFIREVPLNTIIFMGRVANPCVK
From the text: The activity of the compounds according to the invention was studied in an in vitro model of inhibition of coagulation factor Xa, in the presence of antithrombin (antithrombin-dependent anti-factor Xa activity), as described by J.-M. Herbert et al., Blood, 1998, 91, 4197-4205.

avidin = avidin (Gallus gallus, UniProt P02701); test: Neutralization with avidin: avidin-coated beads, centrifugation, anti-factor Xa activity assayed in supernatant; assay type: binding; conditions: after centrifugation
avidin, sequence (P02701 25-152, species assumed): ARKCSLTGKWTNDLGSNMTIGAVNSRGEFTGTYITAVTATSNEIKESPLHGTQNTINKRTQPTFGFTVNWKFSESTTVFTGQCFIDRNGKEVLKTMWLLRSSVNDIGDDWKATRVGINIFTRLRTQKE
Experimental: The resulting mixture is centrifuged and the anti-factor Xa activity is assayed in the supernatant.

metabolization percentage (compound metabolized after 24 h) (biotinidase) [%]	IC50 [1] [nM]	anti-factor Xa activity in the supernatant (avidin; 0.00005 μg product/μg avidin) [%]	anti-factor Xa activity in the supernatant (avidin; 0.0001 μg product/μg avidin) [%]	anti-factor Xa activity in the supernatant (avidin; 0.001 μg product/μg avidin) [%]	anti-factor Xa activity in the supernatant (avidin; 0.01 μg product/μg avidin)	SMILES
1.7	10	1.3 ± 0.9	5.6 ± 1.0	6.0 ± 0.2	6.8 ± 2.0%	COC1OC(COS(=O)(=O)O)C(OC2OC(C(=O)O)C(OC3OC(COS(=O)(=O)O)C(OC4OC(C(=O)O)C(OC5OC(COS(=O)(=O)O)C(OC)C(OC)C5NC(=O)CCCCCOCCCCCC5SCC6NC(=O)NC65)C(OC)C4OC)C(OS(=O)(=O)O)C3OS(=O)(=O)O)C(OC)C2OC)C(OS(=O)(=O)O)C1OS(=O)(=O)O [Compound 1, Methyl (2-deoxy-3,4-di-O-methyl-2-{[6-({5-[(3aS,4S,6aR)-2-oxohexahydro-1H-thieno[3,4-d]imidazol-4-yl]pentyl}oxy)hexanoyl]amino}-6-O-sulfonato-α-D-glucopyranosyl)-(1→4)-(2,3-di-O-methyl-β-D-glucopyranosyluronate)-(1→4)-(2,3,6-tri-O-sulfonato-α-D-glucopyranosyl)-(1→4)-(2,3-di-O-methyl-α-L-idopyranosyluronate)-(1→4)-2,3,6-tri-O-sulfonato-α-D-glucopyranoside, sodium salt]
−3.3	9.93	4.9 ± 1.4	3.0 ± 0.7	5.2 ± 0.5	4.1 ± 0.2%	COC1OC(COS(=O)(=O)O)C(OC2OC(C(=O)O)C(OC3OC(COS(=O)(=O)O)C(OC4OC(C(=O)O)C(OC5OC(COS(=O)(=O)O)C(OC)C(OC)C5NC(=O)CCCCCN(C)CCCCCC5SCC6NC(=O)NC65)C(OC)C4OC)C(OS(=O)(=O)O)C3OS(=O)(=O)O)C(OC)C2OC)C(OS(=O)(=O)O)C1OS(=O)(=O)O [Compound 2, Methyl (2-deoxy-3,4-di-O-methyl-2-{[6-(methyl{5-[(3aS,4S,6aR)-2-oxohexahydro-1H-thieno[3,4-d]imidazol-4-yl]pentyl}amino)hexanoyl]amino}-6-O-sulfonato-α-D-glucopyranosyl)-(1→4)-(2,3-di-O-methyl-β-D-glucopyranosyluronate)-(1→4)-(2,3,6-tri-O-sulfonato-α-D-glucopyranosyl)-(1→4)-(2,3-di-O-methyl-α-L-idopyranosyluronate)-(1→4)-2,3,6-tri-O-sulfonato-α-D-glucopyranoside, sodium salt]
5.3	9.22	3.6 ± 1.2	2.5 ± 2.3	4.5 ± 0.8	2.4 ± 0.0%	COC1OC(COS(=O)(=O)O)C(OC2OC(C(=O)O)C(OC3OC(COS(=O)(=O)O)C(OC4OC(C(=O)O)C(OC5OC(COS(=O)(=O)O)C(OC)C(OC)C5NC(=O)CCCCNC(=O)NCCCCC5SCC6NC(=O)NC65)C(OC)C4OC)C(OS(=O)(=O)O)C3OS(=O)(=O)O)C(OC)C2OC)C(OS(=O)(=O)O)C1OS(=O)(=O)O [Compound 4, Methyl (2-deoxy-3,4-di-O-methyl-2-({5-[({4-[(3aS,4S,6aR)-2-oxohexahydro-1H-thieno[3,4-d]imidazol-4-yl]butyl}carbamoyl)amino]pentanoyl}amino)-6-O-sulfonato-α-D-glucopyranosyl)-(1→4)-(2,3-di-O-methyl-β-D-glucopyranosyluronate)-(1→4)-(2,3,6-tri-O-sulfonato-α-D-glucopyranosyl)-(1→4)-(2,3-di-O-methyl-α-L-idopyranosyluronate)-(1→4)-2,3,6-tri-O-sulfonato-α-D-glucopyranoside, sodium salt]

Second part, the compound before the results:

SMILES	metabolization percentage (compound metabolized after 24 h) (biotinidase) [%]	IC50 [1] [nM]	anti-factor Xa activity in the supernatant (avidin; 0.00005 μg product/μg avidin) [%]	anti-factor Xa activity in the supernatant (avidin; 0.0001 μg product/μg avidin) [%]	anti-factor Xa activity in the supernatant (avidin; 0.001 μg product/μg avidin) [%]	anti-factor Xa activity in the supernatant (avidin; 0.01 μg product/μg avidin)
COC1OC(COS(=O)(=O)O)C(OC2OC(C(=O)O)C(OC3OC(COS(=O)(=O)O)C(OC4OC(C(=O)O)C(OC5OC(COS(=O)(=O)O)C(OC)C(OC)C5NC(=O)CCCCCN(C)C(=O)CCCCC5SCC6NC(=O)NC65)C(OC)C4OC)C(OS(=O)(=O)O)C3OS(=O)(=O)O)C(OC)C2OC)C(OS(=O)(=O)O)C1OS(=O)(=O)O [Compound 3, Methyl (2-deoxy-3,4-di-O-methyl-2-{[6-(methyl{5-[(3aS,4S,6aR)-2-oxohexahydro-1H-thieno[3,4-d]imidazol-4-yl]pentanoyl}amino)hexanoyl]amino}-6-O-sulfonato-α-D-glucopyranosyl)-(1→4)-(2,3-di-O-methyl-β-D-glucopyranosyluronate)-(1→4)-(2,3,6-tri-O-sulfonato-α-D-glucopyranosyl)-(1→4)-(2,3-di-O-methyl-α-L-idopyranosyluronate)-(1→4)-2,3,6-tri-O-sulfonato-α-D-glucopyranoside, sodium salt]	0.8	9.53	0.7 ± 2.4	1.2 ± 0.6	1.8 ± 0.2	0.9%^(1)
COC1OC(COS(=O)(=O)O)C(OC2OC(C(=O)O)C(OC3OC(COS(=O)(=O)O)C(OC4OC(C(=O)O)C(OC5OC(COS(=O)(=O)O)C(OC)C(OC)C5NC(=O)CCCCCNC(=O)CCCCC5SCC6NC(=O)NC65)C(OC)C4OC)C(OS(=O)(=O)O)C3OS(=O)(=O)O)C(OC)C2OC)C(OS(=O)(=O)O)C1OS(=O)(=O)O (stereo not drawn) [Idrabiotaparinux, idrabiotaparinux, reference compound]	15.9	9.49	1.2 ± 0.0	2.5 ± 1.1	2.6 ± 0.3	5.2 ± 3.4%
